This data set can be described thus: Index of bioavailability (% Relative Activity from plasma TT AUC, oral vs i.v.). The format is in vivo. The following applies: dose-adjusted AUC of plasma TT, p.o. versus i.v. bolus. The method, then:
Plasma thrombin time (TT) and activated partial thromboplastin time (APTT) are measured with a fibrometer. Blood is sampled from a jugular catheter and collected in syringe containing sodium citrate (3.8%, 1 part to 9 parts blood). To measure TT, rat plasma (0.1 mL) is mixed with saline (0.1 mL) and bovine thrombin (0.1 mL, 30 U/mL in TRIS buffer; Parke Davis) at 37° C. For APTT, plasma (0.1 mL) and APTT solution (0.1 mL, Organon Teknika) are incubated for 5 minutes (37° C.) and CaCl2 (0.01 mL, 0.025M) is added to start coagulation. Assays are done in duplicate and averaged.
A measure of bioactivity, plasma thrombin time (TT), served as a substitute for the assay of parent compound on the assumption that increments in TT resulted from thrombin inhibition by parent only. The time course of the effect of the thrombin inhibitor upon TT is determined after i.v. bolus administration to anesthetized rats and after oral treatment of fasted conscious rats. Due to limitations of blood volume and the number of points required to determine the time course from time of treatment to the time when the response returned to pretreatment values, two populations of rats are used. Each sample population represented alternating sequential time points. The average TT over the time course is used to calculate area under the curve (AUC). The index of bioavailability is calculated by the formula shown below and is expressed as percent relative activity.
The area under the curve (AUC) of the plasma TT time course is determined and adjusted for the dose. This index of bioavailability is termed "% Relative Activity" and is calculated as [formula] Compounds
Compound solutions are prepared fresh daily in normal saline and are injected as a bolus or are infused starting 15 minutes before and continuing throughout the experimental perturbation which is 15 minutes in the arteriovenous shunt model and 60 minutes in the FeCl3 model of arterial injury and in the spontaneous thombosis model. Bolus injection volume is 1 mL/kg for i.v., and 5 mL/kg for p.o. and infusion volume is 3 mL/hr.
Take `Cl.Cl.N=C(N)NCCC[C@@H](C=O)NC(=O)[C@@H]1CC2CCCCC2N1C(=O)[C@H]1CCCCN1` (relative stereo) [Example 7, N-[(1-D-homoprolyl-cis-octahydro-1H-indol-2(S)-yl)carbonyl]-L-argininal dihydrochloride]: the “% oral/i.v. activity (Rat)” value was 50%.

On to `CCS(=O)(=O)N[C@@H](C(=O)N1[C@H](C(=O)N[C@H](C=O)CCCNC(=N)N)C[C@@H]2CCCC[C@@H]21)c1ccccc1.Cl` (relative stereo) [Example 22, EtSO2 -D-Phg-cis-Ohi-ArgH.HCl], for which the “% oral/i.v. activity (Rat)” value was 30%.

As to `Cl.Cl.N=C(N)NCCCC(C=O)NC(=O)C1CC2CCCCC2N1C(=O)C1NCCC2CCCCC21` [Example 20, D-1-cis-Piq-cis-Ohi-ArgH.2 HCl], the “% oral/i.v. activity (Rat)” value is on record as 6%.

Turning to `Cl.Cl.N=C(N)NCCC[C@H](C=O)NC(=O)[C@@H]1C[C@H](Oc2ccccc2)CN1C(=O)[C@H]1CCCCN1` (relative stereo) [Example 8, D-homoprolyl-L-cis-4-phenoxy-L-prolyl-D-argininal dihydrochloride], the “% oral/i.v. activity (Rat)” value is 20%.

`Cl.Cl.Cl.N=C(N)NCCC[C@@H](C=O)NC(=O)[C@@H]1C[C@H](Oc2ccc(N)cc2)CN1C(=O)[C@H]1CCCCN1` (relative stereo) [Example 11, D-hPro-Pro(4-cis-(4-NH2-phenoxy))-ArgH.3 HCl]: the “% oral/i.v. activity (Rat)” value was found to be 9%.

Turning to `CCC[C@H]1C[C@@H](C(=O)N[C@H](C=O)CCCNC(=N)N)N(C(=O)[C@H]2CCCCN2)C1.Cl.Cl` (relative stereo) [Example 3, D-hPro-Pro(4-cis-n-propyl)-ArgH.2 HCl], the “% oral/i.v. activity (Rat)” value was determined as 45%.

Turning to `Cl.Cl.N=C(N)NCCC[C@@H](C=O)NC(=O)[C@@H]1C[C@H](Oc2ccccc2)CN1C(=O)C1NCCC2CCCCC21` (relative stereo) [Example 15, D-1-Piq-Pro(4-cis-phenoxy)-ArgH.2 HCl], the “% oral/i.v. activity (Rat)” value amounted to 5%.

For `Cl.Cl.N=C(N)NCCC[C@@H](C=O)NC(=O)[C@@H]1C[C@H](Cc2ccccc2)CN1C(=O)[C@H]1CCCCN1` (relative stereo) [Example 5, D-hPro-Pro(4-cis-benzyl)-ArgH.2 HCl], the “% oral/i.v. activity (Rat)” value amounted to 20%.

Take `Cl.Cl.Cl.N=C(N)NCCC[C@@H](C=O)NC(=O)[C@@H]1C[C@H](Oc2cccnc2)CN1C(=O)[C@H]1CCCCN1` (relative stereo) [Example 9, D-hPro-Pro(4-cis-(3-pyridyloxy))-ArgH.3 HCl]: the “% oral/i.v. activity (Rat)” value is 13%.

As to `C[C@H]1C[C@@H](C(=O)N[C@H](C=O)CCCNC(=N)N)N(C(=O)[C@H]2CCCCN2)C1.Cl.Cl` (relative stereo) [Example 1, D-homoprolyl-L-cis-4-methyl-prolyl-L-argininal dihydrochloride], the “% oral/i.v. activity (Rat)” value came out at 47%.

As for `CC[C@H]1C[C@@H](C(=O)N[C@H](C=O)CCCNC(=N)N)N(C(=O)[C@H]2CCCCN2)C1.Cl.Cl` (relative stereo) [Example 2, D-homoprolyl-L-cis-4-ethyl-prolyl-L-argininal dihydrochloride], the “% oral/i.v. activity (Rat)” value came to 50%.

The record behind these values is patent US5599793A, “Antithromobotic agents” (Eli Lilly and Company, priority 1995, dated 1997).
